ChEMBL document CHEMBL1132355, “Novel arylpyrazino[2,3-c][1,2,6]thiadiazine 2,2-dioxides as platelet aggregation inhibitors. 2. Optimization by quantitative structure-activity relationships” (J Med Chem, 1999)

Assay: Inhibition of platelet aggregation (rabbit platelet-rich plasma),induced by arachidonic acid, (100% inhibitory response)
Conditions: Oryctolagus cuniculus

| EC100 [µg/mL] | Structure (SMILES) |
| --- | --- |
| 1 | CCN1c2nc(-c3ccccc3)c(Br)nc2C(N)=NS1(=O)=O |
| 1 | CCN1c2ncc(-c3ccccc3)nc2C(N)=NS1(=O)=O |
| 1 | CC(C)(C)OC(=O)CN1c2nc(-c3ccccc3)c(-c3ccccc3)nc2C(N)=NS1(=O)=O |
| 3 | NC(=O)CN1c2nc(-c3ccccc3)c(-c3ccccc3)nc2C(N)=NS1(=O)=O |
| 0.3 | CN1c2ncc(-c3ccccc3)nc2C(N)=NS1(=O)=O |
| 1 | CCN1c2nc(C)c(-c3ccccc3)nc2C(N)=NS1(=O)=O |
| 10 | CCOC(=O)CN1c2nc(-c3ccccc3)c(Br)nc2C(N)=NS1(=O)=O |
| 0.001 | COc1ccc(-c2nc3c(nc2-c2ccc(OC)cc2)N(C)S(=O)(=O)N=C3N)cc1 |
| 3 | NC1=NS(=O)(=O)N(Cc2ccccc2)c2nc(-c3ccccc3)c(-c3ccccc3)nc21 |
| 3 | CN1c2nc(-c3ccccn3)c(-c3ccccn3)nc2C(N)=NS1(=O)=O |
| 0.3 | CN1c2nc(-c3ccc(F)cc3)c(-c3ccc(F)cc3)nc2C(N)=NS1(=O)=O |
| 0.3 | CCOc1nc2c(nc1-c1ccccc1)C(N)=NS(=O)(=O)N2C |
| 3 | CCN1c2nc(-c3cccs3)c(-c3cccs3)nc2C(N)=NS1(=O)=O |
| 10 | CCN1c2nc(-c3ccccc3)c(Cl)nc2C(N)=NS1(=O)=O |
| 0.1 | CCOC(=O)CN1c2nc(-c3ccccc3)c(-c3ccccc3)nc2C(N)=NS1(=O)=O |
| 10 | CCOc1nc2c(nc1-c1ccc(Cl)cc1)C(N)=NS(=O)(=O)N2CC |
| > 10 | Cc1ccc(-c2cnc3c(n2)N(C)S(=O)(=O)N=C3N)cc1 |
| > 10 | COc1cccc(-c2nc3c(nc2-c2cccc(OC)c2)N(C)S(=O)(=O)N=C3N)c1 |
| 1 | CN1c2nc(-c3ccco3)c(-c3ccco3)nc2C(N)=NS1(=O)=O |
| 0.1 | COc1nc2c(nc1-c1ccccc1)C(N)=NS(=O)(=O)N2C |
| 3 | CCN1c2nc(-c3ccc(Cl)cc3)c(-c3ccc(Cl)cc3)nc2C(N)=NS1(=O)=O |
| > 10 | CCOC(=O)CN1c2nc(-c3ccccc3)cnc2C(N)=NS1(=O)=O |
| 1 | CCN1c2nc(-c3ccccc3)c(C)nc2C(N)=NS1(=O)=O |
| 0.3 | CCN1c2nc(-c3ccccc3)c(-c3ccccc3)nc2C(N)=NS1(=O)=O |
| > 10 | CCN1c2nc(-c3ccccc3)cnc2C(N)=NS1(=O)=O |
| 1 | CN1c2nc(-c3ccc(Br)cc3)c(-c3ccc(Br)cc3)nc2C(N)=NS1(=O)=O |
| 0.03 | CN1c2ncc(-c3ccccc3F)nc2C(N)=NS1(=O)=O |
